The results in this text go back to ChEMBL document CHEMBL5723035, “Affinity Biochemical Literature for EUbOPEN Chemogenomic Library” (2024).

Assay [1] addresses Protein arginine N-methyltransferase 5 (Homo sapiens, UniProt O14744). As to the kind of experiment: Affinity Biochemical interaction: (SPR) EUB0002223a PRMT5. On the set-up: mode of action Inhibitor, recommended concentration 1 uM.
The target of assay [2] is Protein arginine N-methyltransferase 7 (Homo sapiens, UniProt Q9NVM4). As to the kind of experiment: Affinity Biochemical interaction: (SPR) EUB0002223a PRMT7. On the set-up: mode of action Inhibitor, recommended concentration 1 uM.
Assay [3] has as its target Caspase-9 (Homo sapiens, UniProt P55211). Nature of the assay: Affinity Biochemical interaction: (peptide substrate detection probe bound to magnetic beads, detection of liberated fluorophores) EUB0002203aAD CASP9. In kind it is functional. On the set-up: mode of action Inhibitor, recommended concentration 1 uM.
Assay [4] addresses T1, Chromobox protein homolog 7 (Homo sapiens, UniProt O95931).
T1 sequence (O95931 whole entry): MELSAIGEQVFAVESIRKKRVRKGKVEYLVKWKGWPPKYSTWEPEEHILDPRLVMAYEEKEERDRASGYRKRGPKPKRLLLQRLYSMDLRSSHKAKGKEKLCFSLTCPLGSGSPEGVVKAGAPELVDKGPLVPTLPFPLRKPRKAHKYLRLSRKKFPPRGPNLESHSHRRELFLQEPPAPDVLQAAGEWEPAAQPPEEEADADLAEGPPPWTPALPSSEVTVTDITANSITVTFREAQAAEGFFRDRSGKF
As to the kind of experiment: Affinity Biochemical interaction: (ITC) EUB0001090a CBX7. Further details: mode of action Inhibitor, recommended concentration 1 uM.

Assay [5] concerns the target T1, Chromobox protein homolog 7. As to the kind of experiment: Affinity Biochemical interaction: (AlphaScreen) EUB0001090a CBX7. In kind it is functional. On the set-up: mode of action Inhibitor, recommended concentration 1 uM.
For assay [6] the target is unchanged. As to the kind of experiment: Affinity Biochemical interaction: (SPR) EUB0001090a CBX7. Further details: mode of action Inhibitor, recommended concentration 1 uM.
The target in assay [7] is T2, Caspase-3 (Homo sapiens, UniProt P42574).
T2 sequence (P42574 whole entry): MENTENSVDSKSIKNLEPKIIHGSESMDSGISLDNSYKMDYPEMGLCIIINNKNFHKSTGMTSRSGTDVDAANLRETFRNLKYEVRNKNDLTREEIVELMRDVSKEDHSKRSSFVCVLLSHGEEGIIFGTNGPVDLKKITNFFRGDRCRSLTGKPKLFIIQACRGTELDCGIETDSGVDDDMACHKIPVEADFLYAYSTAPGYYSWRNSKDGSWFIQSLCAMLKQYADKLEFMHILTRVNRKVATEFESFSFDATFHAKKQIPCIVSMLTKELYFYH
As to the kind of experiment: (§1) Affinity Biochemical interaction: (enzymatic assay (fluorogenic substrate cleavage)) EUB0002178aAD CASP3. In kind it is functional. On the set-up: mode of action Inhibitor, recommended concentration 1 uM.

The target of assay [8] is T2, Caspase-3. The description is as §1. The assay is classed as functional. On the set-up: mode of action Inhibitor, recommended concentration 1 uM. The source holds these as a separate data set.
Assay [9] has as its target T3, Histone acetyltransferase KAT7 (Homo sapiens, UniProt O95251). Nature of the assay: Affinity Biochemical interaction: (AlphaScreen) EUB0001094a MYST2. The assay is classed as functional. On the set-up: mode of action Inhibitor, recommended concentration 1 uM. (In general: Alpha assays give light when donor and acceptor beads are brought close together.)
The target of assay [10] is T4, Histone acetyltransferase KAT6A (Homo sapiens, UniProt Q92794). As to the kind of experiment: Affinity Biochemical interaction: (SPR) EUB0001094a MYST3. Further details: mode of action Inhibitor, recommended concentration 1 uM.
Assay [11] has as its target T4, Histone acetyltransferase KAT6A. Nature of the assay: Affinity Biochemical interaction: (AlphaScreen) EUB0001094a MYST3. In kind it is functional. Further details: mode of action Inhibitor, recommended concentration 1 uM.
The target of assay [12] is T3, Histone acetyltransferase KAT7. As to the kind of experiment: Affinity Biochemical interaction: (SPR) EUB0001094a MYST2. Further details: mode of action Inhibitor, recommended concentration 1 uM.
Assay [13] concerns the target Caspase-5 (Homo sapiens, UniProt P51878). As to the kind of experiment: Affinity Biochemical interaction: (enzymatic assay (fluorogenic substrate cleavage)) EUB0002202a CASP5. In kind it is functional. On the set-up: mode of action Inhibitor, recommended concentration 1 uM.
Assay [14] can be described thus: Affinity Biochemical interaction: (inhibition of enzyme activity, competitive binding assay (fluorescent substrate cleavage)) EUB0002137aAD CAPN2.
Assay [15] addresses T5, WD repeat-containing protein 5 (Homo sapiens, UniProt P61964). Nature of the assay: Affinity Biochemical interaction: (TR-FRET) EUB0002166aAD WDR5. The assay is classed as functional. Further details: mode of action Inhibitor, recommended concentration 1 uM.
Assay [16] has as its target T5, WD repeat-containing protein 5. Nature of the assay: Affinity Biochemical interaction: (Fluorescence polarisation anisotropy) EUB0002166aAD WDR5. In kind it is functional. On the set-up: mode of action Inhibitor, recommended concentration 1 uM. (In general: Polarisation of emitted light reports the rotation of a fluorescent probe.)
The target in assay [17] is Cathepsin B (Homo sapiens, UniProt P07858). As to the kind of experiment: Affinity Biochemical interaction: (Colorimetric assay, lysis of casein substrate and analysis of protease inhibition by reading wavelength at 595 nm) EUB0002195a CTSB. In kind it is functional. On the set-up: mode of action Inhibitor, recommended concentration 1 uM.
Assay [18] concerns the target Calpain-2 catalytic subunit (Homo sapiens, UniProt P17655). As to the kind of experiment: Affinity Biochemical interaction: (Colorimetric assay, lysis of casein substrate and analysis of protease inhibition by reading wavelength at 595 nm) EUB0002195a CAPN2. In kind it is functional. Further details: mode of action Inhibitor, recommended concentration 1 uM.
In assay [19] the target is Procathepsin L (Homo sapiens, UniProt P07711). As to the kind of experiment: Affinity Biochemical interaction: (Colorimetric assay, lysis of casein substrate and analysis of protease inhibition by reading wavelength at 595 nm) EUB0002195a CTSL. In kind it is functional. On the set-up: mode of action Inhibitor, recommended concentration 1 uM.
Assay [20] concerns the target Protein arginine N-methyltransferase 8 (Homo sapiens, UniProt Q9NR22). Nature of the assay: Affinity Biochemical interaction: (enzymatic assay (inhibition of methyl transfer from radiolabelled substrate [3H]SAM to peptide)) EUB0002245aCl PRMT8. In kind it is functional. On the set-up: mode of action Inhibitor, recommended concentration 1 uM.
Assay [21] deals with Protein arginine N-methyltransferase 6 (Homo sapiens, UniProt Q96LA8). As to the kind of experiment: Affinity Biochemical interaction: (enzymatic assay (inhibition of methyl transfer from radiolabelled substrate [3H]SAM to peptide)) EUB0002245aCl PRMT6. On the set-up: mode of action Inhibitor, recommended concentration 1 uM. In kind it is functional.
The target of assay [22] is Histone-arginine methyltransferase CARM1 (Homo sapiens, UniProt Q86X55). Nature of the assay: Affinity Biochemical interaction: (enzymatic assay (inhibition of methyl transfer from radiolabelled substrate [3H]SAM to peptide)) EUB0002245aCl CARM1. The assay is classed as functional. On the set-up: mode of action Inhibitor, recommended concentration 1 uM.
Assay [23] has as its target Caspase-2 (Homo sapiens, UniProt P42575). As to the kind of experiment: Affinity Biochemical interaction: (enzymatic assay (fluorogenic substrate cleavage)) EUB0002196a CASP2. In kind it is functional. On the set-up: mode of action Inhibitor, recommended concentration 1 uM.
Assay [24] concerns the target T2, Caspase-3. Nature of the assay: Affinity Biochemical interaction: (enzymatic assay (fluorogenic substrate cleavage)) EUB0002196a CASP3. In kind it is functional. Further details: mode of action Inhibitor, recommended concentration 1 uM.
Assay [25] has as its target Caspase-7 (Homo sapiens, UniProt P55210). As to the kind of experiment: Affinity Biochemical interaction: (enzymatic assay (fluorogenic substrate cleavage)) EUB0002196a CASP7. Further details: mode of action Inhibitor, recommended concentration 1 uM. The assay is classed as functional.

Non-standard residues stand in square brackets, D forms with d. Residues, ends and D or L forms follow the SMILES beside them. *: point of attachment. Lys(Me,2-norbornyl) = CN(CCCC[C@H](N)C(=O)O)C1CC2CCC1C2; Benzoyl(4-tBu) = CC(C)(C)c1ccc(C(=O)*)cc1; Cbz = O=C(OCc1ccccc1)*; CH2Cl = ClC*; CH2F = FC*

Sequence of Protein arginine N-methyltransferase 8 (Q9NR22 whole entry): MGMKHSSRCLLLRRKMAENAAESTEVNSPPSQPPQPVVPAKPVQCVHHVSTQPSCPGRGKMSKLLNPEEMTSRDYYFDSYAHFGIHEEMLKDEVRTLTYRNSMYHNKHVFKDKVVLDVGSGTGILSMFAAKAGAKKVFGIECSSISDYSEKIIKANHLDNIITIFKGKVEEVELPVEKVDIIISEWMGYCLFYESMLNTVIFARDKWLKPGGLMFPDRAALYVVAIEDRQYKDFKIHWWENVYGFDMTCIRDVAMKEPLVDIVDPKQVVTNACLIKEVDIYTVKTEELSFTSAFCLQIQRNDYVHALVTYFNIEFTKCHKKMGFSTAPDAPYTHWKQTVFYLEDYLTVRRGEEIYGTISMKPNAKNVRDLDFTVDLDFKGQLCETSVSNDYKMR
Sequence of Histone-arginine methyltransferase CARM1 (Q86X55 whole entry): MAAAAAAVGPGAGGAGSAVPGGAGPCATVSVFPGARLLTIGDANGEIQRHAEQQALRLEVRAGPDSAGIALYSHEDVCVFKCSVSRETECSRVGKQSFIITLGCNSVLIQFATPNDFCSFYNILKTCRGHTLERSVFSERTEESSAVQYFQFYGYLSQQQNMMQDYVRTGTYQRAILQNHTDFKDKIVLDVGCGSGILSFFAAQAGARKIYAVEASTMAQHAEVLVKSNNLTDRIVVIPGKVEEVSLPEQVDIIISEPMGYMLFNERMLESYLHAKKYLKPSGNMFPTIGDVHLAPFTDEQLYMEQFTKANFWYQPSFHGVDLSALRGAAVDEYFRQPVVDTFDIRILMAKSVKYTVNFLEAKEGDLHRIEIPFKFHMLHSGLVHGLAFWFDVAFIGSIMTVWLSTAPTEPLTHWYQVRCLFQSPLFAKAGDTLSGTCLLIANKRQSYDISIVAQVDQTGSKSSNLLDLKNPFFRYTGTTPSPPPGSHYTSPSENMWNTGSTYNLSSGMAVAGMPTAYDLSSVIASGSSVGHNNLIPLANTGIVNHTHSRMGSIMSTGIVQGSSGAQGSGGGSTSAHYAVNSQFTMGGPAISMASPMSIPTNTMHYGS
Sequence of Protein arginine N-methyltransferase 6 (Q96LA8 whole entry): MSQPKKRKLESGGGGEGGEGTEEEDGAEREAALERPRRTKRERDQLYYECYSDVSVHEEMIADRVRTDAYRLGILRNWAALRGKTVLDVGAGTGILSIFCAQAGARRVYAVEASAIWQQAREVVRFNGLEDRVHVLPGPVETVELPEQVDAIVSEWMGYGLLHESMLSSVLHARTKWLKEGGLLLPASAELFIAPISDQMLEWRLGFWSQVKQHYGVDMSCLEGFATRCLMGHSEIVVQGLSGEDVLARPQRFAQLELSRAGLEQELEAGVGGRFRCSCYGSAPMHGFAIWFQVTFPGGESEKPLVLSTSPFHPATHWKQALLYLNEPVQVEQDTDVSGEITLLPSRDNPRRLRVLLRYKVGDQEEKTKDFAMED
T4 sequence (Q92794 whole entry): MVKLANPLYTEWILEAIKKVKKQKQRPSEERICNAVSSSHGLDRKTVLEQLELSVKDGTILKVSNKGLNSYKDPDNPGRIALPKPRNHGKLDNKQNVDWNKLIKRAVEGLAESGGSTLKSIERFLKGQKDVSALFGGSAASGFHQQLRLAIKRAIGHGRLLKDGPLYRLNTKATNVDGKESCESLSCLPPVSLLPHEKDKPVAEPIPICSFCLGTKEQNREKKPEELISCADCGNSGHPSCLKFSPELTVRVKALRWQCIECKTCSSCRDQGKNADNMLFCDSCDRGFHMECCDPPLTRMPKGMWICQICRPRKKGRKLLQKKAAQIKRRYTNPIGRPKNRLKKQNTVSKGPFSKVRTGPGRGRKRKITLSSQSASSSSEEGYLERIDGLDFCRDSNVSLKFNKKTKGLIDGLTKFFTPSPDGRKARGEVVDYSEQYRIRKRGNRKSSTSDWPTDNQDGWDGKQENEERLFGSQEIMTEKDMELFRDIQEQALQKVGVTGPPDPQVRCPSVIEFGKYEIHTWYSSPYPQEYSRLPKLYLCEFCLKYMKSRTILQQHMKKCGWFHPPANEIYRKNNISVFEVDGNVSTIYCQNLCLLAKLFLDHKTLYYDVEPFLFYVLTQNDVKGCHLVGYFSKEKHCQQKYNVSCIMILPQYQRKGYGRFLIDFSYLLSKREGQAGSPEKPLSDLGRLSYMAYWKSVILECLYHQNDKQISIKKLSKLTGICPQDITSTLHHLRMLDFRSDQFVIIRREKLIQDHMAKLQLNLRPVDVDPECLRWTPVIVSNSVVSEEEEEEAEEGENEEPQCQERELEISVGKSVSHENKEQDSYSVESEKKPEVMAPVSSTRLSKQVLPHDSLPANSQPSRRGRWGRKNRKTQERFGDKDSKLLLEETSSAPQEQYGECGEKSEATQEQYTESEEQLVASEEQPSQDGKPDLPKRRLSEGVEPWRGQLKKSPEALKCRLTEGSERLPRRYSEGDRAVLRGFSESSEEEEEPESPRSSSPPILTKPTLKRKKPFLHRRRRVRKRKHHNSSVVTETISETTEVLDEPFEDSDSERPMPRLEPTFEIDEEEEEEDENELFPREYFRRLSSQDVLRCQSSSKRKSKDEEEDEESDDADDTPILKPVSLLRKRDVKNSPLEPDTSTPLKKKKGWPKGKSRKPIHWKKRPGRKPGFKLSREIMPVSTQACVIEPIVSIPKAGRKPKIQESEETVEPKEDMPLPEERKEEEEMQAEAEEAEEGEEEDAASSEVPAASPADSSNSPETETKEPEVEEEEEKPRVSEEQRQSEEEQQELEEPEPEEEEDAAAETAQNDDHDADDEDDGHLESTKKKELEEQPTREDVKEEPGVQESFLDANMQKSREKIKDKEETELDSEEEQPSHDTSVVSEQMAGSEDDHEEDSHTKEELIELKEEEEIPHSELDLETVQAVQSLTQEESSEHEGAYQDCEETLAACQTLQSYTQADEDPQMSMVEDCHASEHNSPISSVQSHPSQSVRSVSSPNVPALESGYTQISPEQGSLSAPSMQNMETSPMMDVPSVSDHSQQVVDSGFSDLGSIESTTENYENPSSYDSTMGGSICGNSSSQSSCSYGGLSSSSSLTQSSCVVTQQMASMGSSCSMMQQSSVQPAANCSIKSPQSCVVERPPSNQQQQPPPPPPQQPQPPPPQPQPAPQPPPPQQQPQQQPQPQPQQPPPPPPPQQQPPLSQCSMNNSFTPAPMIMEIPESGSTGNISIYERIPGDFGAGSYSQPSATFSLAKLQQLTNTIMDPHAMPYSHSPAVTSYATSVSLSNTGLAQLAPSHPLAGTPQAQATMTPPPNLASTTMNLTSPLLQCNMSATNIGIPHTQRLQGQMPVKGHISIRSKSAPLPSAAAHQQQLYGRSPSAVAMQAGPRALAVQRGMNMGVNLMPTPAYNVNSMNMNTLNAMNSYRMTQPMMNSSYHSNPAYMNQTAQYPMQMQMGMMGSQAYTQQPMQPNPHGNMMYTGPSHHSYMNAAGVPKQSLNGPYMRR
T3 sequence (O95251 whole entry): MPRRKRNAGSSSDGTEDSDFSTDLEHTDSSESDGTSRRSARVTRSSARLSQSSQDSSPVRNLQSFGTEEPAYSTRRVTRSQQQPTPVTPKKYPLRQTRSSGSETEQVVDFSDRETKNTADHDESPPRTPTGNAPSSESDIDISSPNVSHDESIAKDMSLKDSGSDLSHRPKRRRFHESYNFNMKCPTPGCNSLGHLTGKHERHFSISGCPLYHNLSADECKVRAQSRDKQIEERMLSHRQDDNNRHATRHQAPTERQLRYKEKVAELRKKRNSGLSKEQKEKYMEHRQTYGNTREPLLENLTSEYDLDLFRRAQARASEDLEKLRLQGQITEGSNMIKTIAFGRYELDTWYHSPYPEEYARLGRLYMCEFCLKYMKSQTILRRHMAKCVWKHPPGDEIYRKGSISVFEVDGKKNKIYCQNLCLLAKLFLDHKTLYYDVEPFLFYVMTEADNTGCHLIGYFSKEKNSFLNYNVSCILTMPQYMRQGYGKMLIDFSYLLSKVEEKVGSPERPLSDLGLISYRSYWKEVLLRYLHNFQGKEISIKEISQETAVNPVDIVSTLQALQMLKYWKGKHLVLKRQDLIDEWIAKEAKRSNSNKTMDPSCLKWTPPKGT
Sequence of Caspase-7 (P55210 24-198 limits assumed): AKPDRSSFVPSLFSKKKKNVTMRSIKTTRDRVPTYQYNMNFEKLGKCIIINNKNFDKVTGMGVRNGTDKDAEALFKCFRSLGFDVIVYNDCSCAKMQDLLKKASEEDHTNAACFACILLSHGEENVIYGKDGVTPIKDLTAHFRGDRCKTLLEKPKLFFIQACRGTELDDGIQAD
Sequence of Caspase-7 (P55210 207-303 limits assumed): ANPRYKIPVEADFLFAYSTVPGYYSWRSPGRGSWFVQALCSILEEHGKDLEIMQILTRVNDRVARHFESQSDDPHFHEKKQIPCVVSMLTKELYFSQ
Sequence of Protein arginine N-methyltransferase 5 (O14744 whole entry): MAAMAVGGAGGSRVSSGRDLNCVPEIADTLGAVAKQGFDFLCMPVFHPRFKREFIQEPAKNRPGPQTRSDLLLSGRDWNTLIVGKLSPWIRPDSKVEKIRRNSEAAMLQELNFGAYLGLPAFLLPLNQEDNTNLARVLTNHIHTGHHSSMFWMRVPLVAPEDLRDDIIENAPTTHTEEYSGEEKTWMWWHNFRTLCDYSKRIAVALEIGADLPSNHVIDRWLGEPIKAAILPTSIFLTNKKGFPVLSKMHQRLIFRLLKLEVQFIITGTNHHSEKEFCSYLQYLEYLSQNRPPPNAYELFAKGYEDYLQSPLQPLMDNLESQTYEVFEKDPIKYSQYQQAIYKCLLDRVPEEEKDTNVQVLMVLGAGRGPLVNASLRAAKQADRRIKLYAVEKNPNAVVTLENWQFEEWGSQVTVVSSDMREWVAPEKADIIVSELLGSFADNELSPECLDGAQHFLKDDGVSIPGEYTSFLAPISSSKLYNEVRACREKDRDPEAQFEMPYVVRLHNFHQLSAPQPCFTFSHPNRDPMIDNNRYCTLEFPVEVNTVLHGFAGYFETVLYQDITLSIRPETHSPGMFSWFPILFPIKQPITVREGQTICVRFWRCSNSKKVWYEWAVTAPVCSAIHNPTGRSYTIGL

The IC50 is the concentration that gives 50% inhibition. For the compound `CCNC(=O)NCCSC[C@H]1O[C@@H](n2cnc3c(N)ncnc32)[C@H](O)[C@@H]1O`, the IC50 amounted to 25000 nM in assay [1] and 37000 nM in assay [2].

On to `CC(=O)N[C@@H](CC(C)C)C(=O)N[C@@H](CCC(=O)O)C(=O)N[C@@H](Cc1cnc[nH]1)C(=O)N[C@@H](CC(=O)O)C(=O)CCl` (Ac-LEHD-CH2Cl), for which the IC50 in assay [3] is 72.8 nM.

The term Kd denotes the concentration at which binding is half-saturated. High values mean lower affinity, low ones higher affinity. For the compound `COC(=O)[C@H](CO)NC(=O)[C@H](CCCCN(C)C1CC2CCC1C2)NC(=O)[C@H](CC(C)C)NC(=O)[C@H](C)NC(=O)[C@H](Cc1ccccc1)NC(=O)c1ccc(C(C)(C)C)cc1` (stereo partly drawn) ({Benzoyl(4-tBu)}-FAL[Lys(Me,2-norbornyl)]S-OMe), the Kd in [4] was 59 nM; in [6], 53.8 nM. The IC50 in assay [5] came out at 20 nM.

In the case of `CC[C@H](C)[C@H](NC(=O)[C@H](CCC(=O)O)NC(=O)[C@@H](NC(C)=O)C(C)C)C(=O)N[C@H](C=O)CC(=O)O` (Ac-VEID-aldehyde), the figures for the IC50 in [7] and in assay [8] were 13.6 nM and 480 nM, respectively.

Regarding `Cc1cc(-c2ccccc2)cc(C(=O)NNS(=O)(=O)c2cccc(O)c2)c1F`, the IC50 is 30 nM in assay [9] and 17 nM in assay [11]. The Kd is 7 nM in [10] and 34 nM in assay [12].

Consider `COC(=O)CC[C@H](NC(=O)[C@H](Cc1c[nH]c2ccccc12)NC(=O)OCc1ccccc1)C(=O)N[C@@H](Cc1cnc[nH]1)C(=O)N[C@@H](CC(=O)OC)C(=O)CF` (Cbz-WE(OMe)HD(OMe)-CH2F), for which, in [13], the IC50 came out at 340 nM.

A word on the Ki: it is a measure of affinity in units of concentration, obtained from inhibition or displacement. In assay [14], `CCC(NC(=O)C(CC(C)C)NC(=O)OCc1ccccc1)C(=O)C(=O)NCCCN1CCOCC1` (stereo not drawn) came in with a Ki of 41 nM. That is a double-digit nanomolar value.

As to `Cc1nc(F)ccc1-c1cc(Cn2ccn(C)c2=N)cc(C(=O)NCc2ccc(Cl)c(Cl)c2)c1`, the Ki was 0.106 nM in [15] and less than 0.001 nM in assay [16].

Consider `CC(C)C[C@@H](C=O)NC(=O)[C@@H](NS(=O)(=O)c1ccc(F)cc1)C(C)C`, for which the IC50 in [17] turned out to be 15 nM; in assay [18], 78 nM; in assay [19] it was 1.6 nM.

For the compound `CCOCC1(COCC)CCC(c2n[nH]cc2CN(C)CCNC)CC1`, the results for the IC50 in assay [20], in assay [21] and in assay [22] were 3.9 nM, 4.7 nM and 38 nM, respectively. Moreover, the Ki is 2 nM in assay [20], 2.4 nM in [21] and 19 nM in assay [22].

`CC(=O)N[C@H](C(=O)N[C@@H](CC(=O)O)C(=O)N[C@H](C(=O)N[C@@H](C)C(=O)N[C@H](C=O)CC(=O)O)C(C)C)C(C)C` (Ac-VDVAD-aldehyde): the Ki is 3.5 nM in assay [23], 1 nM in assay [24] and 7.5 nM in assay [25].
